Data set [1] addresses NT-3 growth factor receptor (Homo sapiens, UniProt Q16288). As to the kind of experiment: Inhibition of TRKC (unknown origin) using Kinase substrate 22 pre-incubated with compound for 10 mins followed by substrate and ATP addition measured after 30 mins by mobility shift assay based caliper reader analysis.
Data set [2] addresses T1, High affinity nerve growth factor receptor (Homo sapiens, UniProt P04629). Kind of data set: Inhibition of TRKA (unknown origin) using Kinase substrate 22 pre-incubated with compound for 10 mins followed by substrate and ATP addition measured after 30 mins by mobility shift assay based caliper reader analysis.
Target sequence in this assay (P04629 whole entry): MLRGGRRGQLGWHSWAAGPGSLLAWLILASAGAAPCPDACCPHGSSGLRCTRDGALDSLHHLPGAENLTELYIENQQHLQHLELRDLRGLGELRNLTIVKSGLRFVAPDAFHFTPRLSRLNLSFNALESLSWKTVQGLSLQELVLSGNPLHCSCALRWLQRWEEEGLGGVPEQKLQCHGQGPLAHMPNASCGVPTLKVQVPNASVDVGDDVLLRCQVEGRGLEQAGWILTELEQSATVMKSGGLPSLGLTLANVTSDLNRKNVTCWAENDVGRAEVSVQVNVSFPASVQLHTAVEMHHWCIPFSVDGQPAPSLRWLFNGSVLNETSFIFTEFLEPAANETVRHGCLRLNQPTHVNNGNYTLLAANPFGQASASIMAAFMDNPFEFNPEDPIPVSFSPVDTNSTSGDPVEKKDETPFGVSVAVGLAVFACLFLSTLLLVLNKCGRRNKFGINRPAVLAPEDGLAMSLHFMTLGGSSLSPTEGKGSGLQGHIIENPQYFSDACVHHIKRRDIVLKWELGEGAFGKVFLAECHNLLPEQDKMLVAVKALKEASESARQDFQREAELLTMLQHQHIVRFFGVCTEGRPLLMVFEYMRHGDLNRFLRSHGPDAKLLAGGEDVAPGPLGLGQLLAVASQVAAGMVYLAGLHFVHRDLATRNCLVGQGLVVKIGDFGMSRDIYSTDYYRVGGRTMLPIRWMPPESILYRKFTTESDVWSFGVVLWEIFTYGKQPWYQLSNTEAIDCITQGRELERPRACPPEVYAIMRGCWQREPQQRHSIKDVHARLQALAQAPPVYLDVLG
The target in data set [3] is BDNF/NT-3 growth factors receptor (Homo sapiens, UniProt Q16620). As to the kind of experiment: Inhibition of TRKB (unknown origin) using Kinase substrate 22 pre-incubated with compound for 10 mins followed by substrate and ATP addition measured after 30 mins by mobility shift assay based caliper reader analysis.
BDNF/NT-3 growth factors receptor, sequence (Q16620 whole entry): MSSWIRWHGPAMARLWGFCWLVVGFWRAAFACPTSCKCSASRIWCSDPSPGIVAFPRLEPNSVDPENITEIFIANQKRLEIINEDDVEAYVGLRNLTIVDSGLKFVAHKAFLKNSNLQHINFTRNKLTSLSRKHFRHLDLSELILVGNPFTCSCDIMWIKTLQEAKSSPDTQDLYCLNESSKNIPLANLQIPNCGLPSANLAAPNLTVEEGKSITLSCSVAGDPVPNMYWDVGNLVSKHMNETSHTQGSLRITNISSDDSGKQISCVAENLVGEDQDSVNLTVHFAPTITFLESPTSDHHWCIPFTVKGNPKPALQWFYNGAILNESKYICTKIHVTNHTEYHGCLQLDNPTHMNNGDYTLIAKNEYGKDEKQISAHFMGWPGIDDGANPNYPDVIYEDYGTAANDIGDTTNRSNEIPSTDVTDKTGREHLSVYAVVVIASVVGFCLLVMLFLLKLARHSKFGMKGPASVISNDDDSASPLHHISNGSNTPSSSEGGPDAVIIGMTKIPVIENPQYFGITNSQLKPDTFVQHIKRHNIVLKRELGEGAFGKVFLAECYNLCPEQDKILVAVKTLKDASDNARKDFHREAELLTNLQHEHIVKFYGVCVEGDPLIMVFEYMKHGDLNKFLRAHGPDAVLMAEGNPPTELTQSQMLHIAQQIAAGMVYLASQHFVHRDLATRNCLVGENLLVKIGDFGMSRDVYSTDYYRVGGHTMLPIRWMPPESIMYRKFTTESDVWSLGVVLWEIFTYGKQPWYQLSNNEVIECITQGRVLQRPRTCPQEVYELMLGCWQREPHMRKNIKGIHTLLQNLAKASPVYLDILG
Data set [4] concerns the target T1, High affinity nerve growth factor receptor. Kind of data set: Inhibition of human 6-His tagged TRKA expressed in Sf9 insect cells incubated for 2 hrs in presence of ATP by LanthaScreen based FRET assay relative to control. Conditions: concentration not given here. In general terms: TR-FRET usually uses a lanthanide donor and a delayed reading to cut background.
Target sequence in this assay (P04629 33-796 limits assumed): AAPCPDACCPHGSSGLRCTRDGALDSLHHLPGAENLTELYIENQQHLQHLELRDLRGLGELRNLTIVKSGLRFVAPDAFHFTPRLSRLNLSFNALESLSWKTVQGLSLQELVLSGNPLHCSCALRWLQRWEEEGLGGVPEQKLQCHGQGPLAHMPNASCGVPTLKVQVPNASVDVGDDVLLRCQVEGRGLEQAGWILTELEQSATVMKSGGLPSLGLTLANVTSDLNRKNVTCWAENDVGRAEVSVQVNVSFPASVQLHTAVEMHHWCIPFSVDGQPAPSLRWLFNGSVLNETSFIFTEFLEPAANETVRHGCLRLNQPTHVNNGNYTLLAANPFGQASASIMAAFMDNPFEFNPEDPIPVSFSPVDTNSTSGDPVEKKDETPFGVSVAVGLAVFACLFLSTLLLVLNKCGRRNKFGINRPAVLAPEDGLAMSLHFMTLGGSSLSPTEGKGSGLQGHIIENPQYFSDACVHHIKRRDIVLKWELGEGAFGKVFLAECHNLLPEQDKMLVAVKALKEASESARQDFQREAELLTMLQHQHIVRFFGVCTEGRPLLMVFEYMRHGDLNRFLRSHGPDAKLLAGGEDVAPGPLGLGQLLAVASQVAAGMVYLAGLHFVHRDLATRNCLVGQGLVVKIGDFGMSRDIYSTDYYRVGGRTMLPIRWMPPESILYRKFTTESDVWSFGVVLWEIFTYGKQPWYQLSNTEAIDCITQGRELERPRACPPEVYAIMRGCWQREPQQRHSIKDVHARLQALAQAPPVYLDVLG

The target is the same in data set [5]. As to the kind of experiment: Inhibition of human 6-His tagged TRKA expressed in Sf9 insect cells incubated for 2 hrs in presence of ATP by LanthaScreen based FRET assay.
Target sequence in this assay (P04629 whole entry): as the sequence (P04629 whole entry) above
The subject of data set [6] is Mus musculus. As to the kind of experiment: Antinociceptive activity against formalin-induced pain in C57BL/6N mouse assessed as reduction in nociceptive response in phase I at IG administration for 1 hr followed by formalin challenge. The data set is classed as functional, organism-based.
Data set [7] deals with Mus musculus. Kind of data set: Antinociceptive activity in Kunming mouse assessed as reduction in nociceptive response at 40 mg/kg,IG administration and measured at 3 hrs by hot plate test. The data set is classed as functional, organism-based. (In general: Thermal pain tests record how soon the animal reacts.)
Data set [8] can be described thus: Drug metabolism in mouse hepatocyte assessed as 5-(3-(1-Methy1-1H-pyrazol-3-y1)-4-(trifluoromethyl)benzamido)-6-phenylnicotinic acid metabolite formation at 2 uM incubated for 30 mins by LC-MS/MS analysis. Format: ADME, cell-based. Conditions: hepatocytes, 0.5 h.
Data set [9] can be described thus: Drug metabolism in Kunming mouse blood assessed as 5-(3-(1-Methy1-1H-pyrazol3-yl)-4-(trifluoromethyl)benzamido)-6-phenylnicotinic acid metabolite formation at 15 mg/kg,IG administration measured after 1 hr by LC-MS/MS analysis. Format: ADME, organism-based. Conditions: in vivo, po.
Data set [10] can be described thus: Drug metabolism in mouse hepatocyte assessed as N-(5-Hydroxy-2-phenylpyridin-3-y1)-3-(1-methyl-1H-pyrazol-3-y1)-4-(trifluoromethyl) benzamide metabolite formation at 2 uM incubated for 30 mins by LC-MS/MS analysis. The data set is classed as ADME, cell-based. Conditions: hepatocytes, 0.5 h.
The test system of data set [11] is Mus musculus. As to the kind of experiment: Antinociceptive activity in Kunming mouse assessed as reduction in nociceptive response by measuring effective dose at IG administration measured after 3 hr by hot plate test. The following applies: po. The data set is classed as functional.
The nature of data set [12]: Drug metabolism in mouse hepatocyte assessed as 5-(3-(1-Methyl-1H-pyrazol-3-y1)-4-(trifluoromethyl)benzamido)-6-phenybridirt-3-yldihydrogen phosphate metabolite formation at 2 uM incubated for 30 mins by LC-MS/MS analysis. The data set is classed as ADME, cell-based. Conditions: hepatocytes, 0.5 h.
The test system of data set [13] is Mus musculus. As to the kind of experiment: Antinociceptive activity in Kunming mouse assessed as reduction in nociceptive response at 40 mg/kg,IG administration and measured after 1 hr by hot plate test. Format: functional. Also noted: scale not given: the % may be the effect or the level left.
Data set [14] can be described thus: Drug uptake in Kunming mouse blood at 15 mg/kg,IG administration measured after 30 mins by LC-MS/MS analysis. Format: ADME, organism-based. Conditions: in vivo, po, 0.5 h.
Data set [15] concerns Mus musculus. Kind of data set: Antinociceptive activity in ATP-induced Kunming mouse assessed as reduction in nociceptive response at 40 mg/kg,IG administration and measured after 1 hr by hot plate test. Format: functional, organism-based.
Data set [16] relates to Mus musculus. Kind of data set: Antinociceptive activity in Kunming mouse assessed as reduction in nociceptive response at 15 mg/kg,IG administration and measured after 1 hr by hot plate test. Format: functional, organism-based.
Data set [17] deals with Mus musculus. Kind of data set: Antinociceptive activity against formalin-induced pain in C57BL/6N mouse assessed as reduction in nociceptive response in phase II at IG administration for 1 hr followed by formalin challenge. Format: functional, organism-based.
For data set [18], the system named is Mus musculus. Kind of data set: Antinociceptive activity in Kunming mouse assessed as reduction in nociceptive response at 8 mg/kg,IG administrated with TRKA activator, Amitriptyline and measured at 3 hrs by hot plate test. Format: functional, organism-based.
Data set [19] relates to Mus musculus. As to the kind of experiment: Antinociceptive activity in Kunming mouse assessed as reduction in nociceptive response at 100 mg/kg,IG administration and measured for 1 to 6 hrs by hot plate test. The data set is classed as functional, organism-based. The following applies: time 1-6 hrs.
The subject of data set [20] is Mus musculus. Kind of data set: Antinociceptive activity in Kunming mouse assessed as reduction in nociceptive response at 40 mg/kg,IG administration and measured for 1 to 6 hrs by hot plate test. Format: functional, organism-based. The following applies: time 1-6 hrs.

Activity calls are given as the source filed them. The calls are words filed in the database; no cut-off is given here.

NT-3 growth factor receptor, sequence (Q16288 whole entry): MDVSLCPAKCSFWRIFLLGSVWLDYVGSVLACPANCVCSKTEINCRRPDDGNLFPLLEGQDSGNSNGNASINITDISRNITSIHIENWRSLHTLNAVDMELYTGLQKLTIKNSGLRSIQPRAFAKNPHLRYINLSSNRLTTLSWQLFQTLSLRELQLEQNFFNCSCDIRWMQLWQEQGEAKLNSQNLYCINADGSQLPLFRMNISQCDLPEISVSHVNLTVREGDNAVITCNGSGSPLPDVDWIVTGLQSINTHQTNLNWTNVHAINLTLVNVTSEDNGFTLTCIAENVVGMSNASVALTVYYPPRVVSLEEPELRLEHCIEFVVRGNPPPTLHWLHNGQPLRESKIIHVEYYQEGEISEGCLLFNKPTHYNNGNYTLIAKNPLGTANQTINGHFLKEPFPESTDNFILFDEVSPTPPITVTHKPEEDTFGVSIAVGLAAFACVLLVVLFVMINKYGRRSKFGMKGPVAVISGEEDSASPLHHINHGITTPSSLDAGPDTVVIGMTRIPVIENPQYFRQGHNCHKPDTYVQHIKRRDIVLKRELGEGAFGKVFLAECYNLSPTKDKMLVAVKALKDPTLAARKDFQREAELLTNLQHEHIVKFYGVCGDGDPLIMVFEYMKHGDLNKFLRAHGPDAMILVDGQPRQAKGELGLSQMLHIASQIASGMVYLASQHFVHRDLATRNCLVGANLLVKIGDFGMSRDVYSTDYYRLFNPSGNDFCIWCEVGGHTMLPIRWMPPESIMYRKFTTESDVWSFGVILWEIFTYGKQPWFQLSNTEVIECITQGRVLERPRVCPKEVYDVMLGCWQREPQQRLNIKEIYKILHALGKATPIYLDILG

For the molecule `Cn1ccc(-c2cc(C(=O)Nc3cc(O)cnc3-c3ccccc3)ccc2C(F)(F)F)n1`, the results for the concentration for half-maximal inhibition (IC50) in data set [1], in data set [2] and in data set [3] were over 500000 nM, 70.4 nM and over 500000 nM, respectively.

`Cc1ncc(-c2ccccc2)c(NC(=O)NC2c3ccccc3-c3ccccc32)n1`: the IC50 (commonly the concentration needed to halve the response being measured) in data set [1] was 25000 nM; in data set [2], 99 nM; in [3], over 81000 nM; in data set [5] it was 99 nM. Besides, the inhibition (commonly the drop in the measured response relative to a control, in per cent) in data set [4] was over 70%.

With `Cn1ccc(-c2cc(C(=O)Nc3cc(C(=O)O)cnc3-c3ccccc3)ccc2C(F)(F)F)n1`, the IC50 in data set [1] is 20200 nM; in [2] it was 22.4 nM; in data set [3], 190000 nM.

With `Cn1ccc(-c2cc(C(=O)Nc3cc(OP(=O)(O)O)cnc3-c3ccccc3)ccc2C(F)(F)F)n1`, the figures for the IC50 in [1], in data set [2] and in data set [3] were over 500000 nM, 798 nM and over 500000 nM, respectively.

As to `CC(=O)OCOC(=O)c1cnc(-c2ccccc2)c(NC(=O)c2ccc(C(F)(F)F)c(-c3ccn(C)n3)c2)c1`, the Activity entry was “Dose-Dependent Effect” with Mus musculus [6], 20% with Mus musculus [13] and “Dose-Dependent Effect” with Mus musculus [17]. The outcome in the data set with Mus musculus [7] and in the data set with Mus musculus [16] was Active. The Drug metabolism entry in data set [8] is given as “Metabolite_Detected”; in data set [9] it was “Metabolite_Detected”; in data set [10], “Metabolite_Detected”; in [12], “Metabolite_Notdetected”. Further, in the data set on Mus musculus [11], the ED50 (commonly the midpoint of the dose-response relation) was found to be 7.84 mg/kg. Further, the Drug uptake result in data set [14] is given as “Not Active”. Besides, the outcome in the data set with Mus musculus [15] and with Mus musculus [18] was inactive.

In the case of `CCOc1nn(-c2ccccc2)c(NC(=O)N[C@H]2CN(CCOC)C[C@@H]2c2ccc(F)c(F)c2)c1C`, the half-inhibitory concentration (IC50) came to 2480 nM in data set [1], 2.7 nM in [2] and 1300 nM in [3].

In the case of `CC(=O)NCc1ncc(NC(=O)c2ccc(C(F)(F)F)c(-c3cn(C)cn3)c2)c(-c2ccccc2)n1`, the IC50 in data set [1] was 760 nM; in data set [2], 4 nM.

Regarding `CC(C)Cc1ccc(C(C)C(=O)O)cc1` (centres undefined), the outcome in the data set on Mus musculus [19] was Active.

Regarding `COC(=O)[C@H](C)NP(=O)(Oc1ccccc1)Oc1cnc(-c2ccccc2)c(NC(=O)c2ccc(C(F)(F)F)c(-c3ccn(C)n3)c2)c1` (some centres undefined), the outcome in the data set on Mus musculus [20] was Active. Also, the figures for the Drug metabolism result in data set [8], in data set [10] and in data set [12] were “Metabolite_Detected”, “Metabolite_Detected” and “Metabolite_Notdetected”, respectively. Moreover, the Activity in the data set with Mus musculus [13] is recorded as 20%. For the same molecule, in the data set on Mus musculus [15], the outcome was inactive.

For the origin of these results see ChEMBL document CHEMBL5344410, “Design, development and evaluation of a prodrug-type TrkA-selective inhibitor with antinociceptive effects in vivo” (Eur J Med Chem, 2023).
